Data as given in patent US7635493B2, “Herbal composition for Tinea infection” (Piramal Life Sciences Limited, priority 2005, dated 2009).
In brackets after ≈: the same amount, converted by molar mass.

Key:
[1] = system: TNF-α; assay: TNF-α production by LPS in human peripheral blood mononuclear cells (hPBMC), ELISA; format: cell-based
Experimental: Assay for Screening in Human Peripheral Blood Mononuclear Cells (hPBMCs). TNF-α production by Lipopolysaccharide (LPS) in hPBMC was measured according to the method described by Jansky, L. et al (Physiol. Res. 52, 593-598, (2003)). Blood was collected from healthy donors into vacutainer tubes coated with potassium EDTA (Vacutest Plast) and diluted 1:2 with Dulbecco's Phosphate Buffered Saline (DPBS) (Sigma Aldrich, St. Louis, Mo.). The PBMC were harvested from human blood and suspended in RPMI 1640 culture medium (Gibco BRL, Pasley, UK) containing 10% fetal bovine serum (FBS) (Hyclone, Utah, USA), 100 U/ml penicillin (Sigma Chemical Co. St Louis, Mo.) and 100 μg/ml streptomycin (Sigma Chemical Co. St Louis, Mo.). The cell concentration was adjusted to 1×10^6 cells/ml. The cell suspension (100 μl) was added to the wells of a 96-well culture plate. Following cell plating, 79 μl of the culture medium and 1 μl of eight different concentrations of the test samples (10 to 100 μg/ml) dissolved in dimethylsulfoxide (DMSO, Sigma, Mo., USA) were added to the cells. The final concentration of DMSO was adjusted to 0.5-1%. Rolipram (100 μM) was used as a standard compound. The plates were incubated for 30 min at 37° C. in an atmosphere of 5% CO2. Finally, 20 μl (10 μg/ml) per well of LPS, (Escherchia coli 0127:B8, Sigma Chemical Co., St. Louis, Mo.) was added, to obtain a final concentration of 2 μg/ml. The plates were incubated at 37° C. for 5 h in an atmosphere of 5% CO2. Supernatants were harvested and assayed for % TNF-α inhibition by ELISA as described by the manufacturer (R&D Systems, MN) or by cytotoxicity bioassay in L929 cells.

[2] = system: L929 cells; assay: Cytotoxicity in L929 cell lines; format: cell-based; parameters: Cytotoxicity in L929 cell lines: unit not given here
[3] = system: Microsporum gypseum; assay: In vitro anti-dermatophytic activity, agar dilution MIC; format: cell-based; conditions: Nannizzia gypsea; M. gypseum; Sabarouds agar, 28° C./48 h
Experimental: (§1) In vitro Assay Procedure.
(§2) Organisms: Trichophyton mentagrophytes & Microsporum gypseum.
(§3) Cultures were grown on PDA agar slants at 28° C. for 7 days. The growth was covered with sterile saline & scraped to get a growth suspension. The resulting mixture of conidia or sporangiospores & hypal fragments was transferred to a sterile test tube. The heavy particles were allowed to settle & upper homogenous suspension was transferred to another tube. These suspensions were adjusted to an optical density that ranged from 0.09 to 0.11 (80 to 82% transmittance) using a spectrophotometer. These stock suspensions were further diluted 1:10 with saline to obtain test inoculum (1×103 to 5×10^3 cfu/ml).
(§4) Ointment & Cream: A 100 mg/ml stock solution of ointment & cream of example 4 and 5 was prepared in demineralised water+0.01% Tween 20. Calculated amount of stock solution was added to 20 ml of Sabarouds melted agar medium & poured into petri plates so as to get a series of serial two fold dilution of the extract in the medium. Five concentrations of 100, 50, 25, 10 & 5 mg/ml were used for both formulations in initial study. A repeated study was carried out using lower concentrations of both the formulations. The concentrations used were 5, 1, 0.9, 0.8, 0.7, 0.6, 0.5, 0.4 0.3, 0.2 & 0.1 mg/ml.
(§5) Extract of Example 1 and Ethyl p-methoxycinnamate: […]

[4] = system: Trichophyton mentagrophytes; assay: as above; format: cell-based; conditions: T. mentagrophytes, Sabarouds agar, 28° C./48 h
Experimental: as §1, §2, §3, §4, §5

[5] = system: dermatophytes; conditions: Lloydia, 39(4), 218-222, (1976); cited from earlier work

**Q.** Which inhibition at 10 µg/mL ([1]; PBMC, sample concentration 10 μg/ml, LPS-stimulated human cells, 5 h) does the source give for `CCOC(=O)C=Cc1ccc(OC)cc1` [Ethyl p-methoxycinnamate] here?
**A.** 0%

**Q.** What about the inhibition at 100 µg/mL ([1]; PBMC, sample concentration 100 μg/ml, LPS-stimulated human cells, 5 h) of the same compound?
**A.** 80%

**Q.** What about the “TNF alpha activity inhibition (conclusion in words)” value ([1]; conclusion from table 1) of the same compound?
**A.** inhibit TNF alpha activity

**Q.** And the “Cytotoxicity in L929 cell lines” value ([2]; 10 μg/ml, 3.5 h)?
**A.** 20

**Q.** And the “Cytotoxicity in L929 cell lines” value ([2]; 10 μg/ml, 24 h)?
**A.** 27

**Q.** And the “Cytotoxicity in L929 cell lines” value ([2]; 100 μg/ml, 3.5 h)?
**A.** 12

**Q.** What about the “Cytotoxicity in L929 cell lines” value ([2]; 100 μg/ml, 24 h) of the same compound?
**A.** 02

**Q.** What about the “Cytotoxicity (conclusion in words)” value ([2]; as measured in L929 cell lines) of the same compound?
**A.** low cytotoxicity

**Q.** What about the MIC [3] of the same compound?
**A.** 30 µg/mL (≈ 145 µM)

**Q.** What about the MIC [4] of the same compound?
**A.** 30 µg/mL (≈ 145 µM)

**Q.** And the “Anti-dermatophytic activity (reported)” value [5]?
**A.** reported to be anti-dermatophytic
